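Dose response: 5 concentrations. Exposure: 48 h. Format: 96-well plates. Endpoint: linear interpolation; highest concentration if not reached. Here, GI50 denotes the concentration required for 50% inhibition of growth.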 Active and inactive are the calls of the source. No stated cut-off is given here; in the data, active = GI50 up to about 1.1 µM and inactive = higher.
Tests used:
Assay in all cases: DTP human tumour cell line panel, 48 h
SK-MEL-28 = test system: SK-MEL-28
RXF 393 = test system: RXF 393
SNB-19 = test system: SNB-19
SF-295 = test system: SF-295
SK-OV-3 = test system: SK-OV-3
UACC-257 = test system: UACC-257
A549 = test system: A549
K562 = test system: K562
COLO 205 = test system: COLO 205
SK-MEL-5 = test system: SK-MEL-5
SW-620 = test system: SW-620
NCI-H522 = test system: NCI-H522
NCI-H226 = test system: NCI-H226
IGROV-1 = test system: IGROV-1
NCI-H23 = test system: NCI-H23
HCC 2998 = test system: HCC 2998
SK-MEL-2 = test system: SK-MEL-2
SNB-75 = test system: SNB-75
HT-29 = test system: HT-29
NCI/ADR-RES = test system: NCI/ADR-RES

Measured: GI50

O=P1(Oc2ccc(Cl)cc2Cl)Oc2cc3ccccc3cc2O1
inactive: SK-MEL-28 > 100 µM | RXF 393 > 58.9 µM | SNB-19 > 100 µM | SF-295 59.3 µM | SK-OV-3 > 100 µM | UACC-257 > 100 µM | A549 66.2 µM | K562 46.2 µM | COLO 205 97.9 µM | SK-MEL-5 59 µM | SW-620 70.1 µM | NCI-H522 26.5 µM | NCI-H226 > 76.6 µM | IGROV-1 64.7 µM | NCI-H23 43.9 µM | HCC 2998 20.8 µM | SK-MEL-2 81.1 µM | SNB-75 70.8 µM | HT-29 > 72.9 µM | NCI/ADR-RES 84.1 µM

Cc1nc(O)nc(N/N=C/c2ccc(Cl)cc2)c1C(=O)NC(C)(CO)CO
inactive: SK-MEL-28 > 100 µM | RXF 393 > 100 µM | SNB-19 > 100 µM | SF-295 > 100 µM | SK-OV-3 > 100 µM | UACC-257 > 100 µM | K562 > 100 µM | COLO 205 > 100 µM | SK-MEL-5 > 100 µM | SW-620 > 100 µM | NCI-H226 > 100 µM | IGROV-1 > 100 µM | NCI-H23 > 100 µM | HCC 2998 > 100 µM | SK-MEL-2 > 100 µM | SNB-75 > 100 µM | HT-29 > 100 µM | NCI/ADR-RES > 100 µM

CC1=C(O)C(=O)[C@@H]2O[C@@H]2C1=O
inactive: SK-MEL-28 5.98 µM | RXF 393 2.84 µM | SNB-19 32.8 µM | SF-295 28.2 µM | SK-OV-3 33.4 µM | UACC-257 11.1 µM | A549 27.3 µM | K562 5.64 µM | COLO 205 4.72 µM | SK-MEL-5 16.1 µM | SW-620 3.65 µM | NCI-H522 2 µM | NCI-H226 14.5 µM | IGROV-1 20.1 µM | NCI-H23 12.7 µM | HCC 2998 15.2 µM | SK-MEL-2 16 µM | SNB-75 17.4 µM | HT-29 12.1 µM | NCI/ADR-RES 10.7 µM

CN(C)c1ccc(/C=C/C(=O)O)cc1
inactive: SNB-19 > 100 µM | SF-295 > 100 µM | SK-OV-3 > 100 µM | UACC-257 > 100 µM | A549 > 100 µM | K562 > 100 µM | COLO 205 > 100 µM | SK-MEL-5 > 100 µM | SW-620 > 100 µM | NCI-H522 > 100 µM | NCI-H226 > 100 µM | IGROV-1 > 100 µM | HCC 2998 > 100 µM | SK-MEL-2 > 100 µM | SNB-75 > 100 µM | HT-29 > 100 µM

N#CC(OC1OC(COC2OC(CO)C(O)C(O)C2O)C(O)C(O)C1O)c1ccccc1 (configuration not stated)
inactive: SK-MEL-28 > 225 µM | RXF 393 > 225 µM | SNB-19 > 225 µM | SF-295 > 225 µM | SK-OV-3 > 225 µM | UACC-257 > 225 µM | A549 > 225 µM | K562 > 225 µM | COLO 205 > 225 µM | SK-MEL-5 > 225 µM | SW-620 > 225 µM | NCI-H522 > 225 µM | NCI-H226 > 225 µM | IGROV-1 > 225 µM | NCI-H23 > 225 µM | HCC 2998 > 225 µM | SK-MEL-2 > 225 µM | SNB-75 > 225 µM | HT-29 > 225 µM | NCI/ADR-RES > 225 µM

NC(Cc1ccc(CP(=O)(O)O)cc1)C(=O)O (configuration not stated)
inactive: SK-MEL-28 > 100 µM | RXF 393 > 100 µM | SNB-19 > 100 µM | SF-295 > 100 µM | SK-OV-3 > 100 µM | UACC-257 > 100 µM | A549 > 100 µM | K562 > 100 µM | COLO 205 > 100 µM | SK-MEL-5 > 100 µM | SW-620 > 100 µM | NCI-H522 > 100 µM | IGROV-1 > 100 µM | NCI-H23 > 100 µM | HCC 2998 > 100 µM | SK-MEL-2 > 100 µM | SNB-75 > 100 µM | HT-29 > 100 µM | NCI/ADR-RES > 100 µM

CCOC(=O)/C=C/CC(C)(C)COC(C)=O
inactive: SK-MEL-28 > 10 µM | RXF 393 5.32 µM | SF-295 > 10 µM | SK-OV-3 > 10 µM | UACC-257 > 10 µM | A549 > 10 µM | K562 9.91 µM | SW-620 > 10 µM | NCI-H522 > 10 µM | NCI-H226 2.45 µM | NCI-H23 > 10 µM | HCC 2998 > 10 µM | SK-MEL-2 > 10 µM | SNB-75 5.11 µM | NCI/ADR-RES > 10 µM

O=C1C(Cl)N(c2cccc([N+](=O)[O-])c2)C1c1c[nH]c2ccccc12 (configuration not stated)
inactive: SK-MEL-28 23.7 µM | RXF 393 12.9 µM | SNB-19 23.9 µM | SF-295 17.8 µM | SK-OV-3 11.1 µM | UACC-257 20.7 µM | A549 22.1 µM | K562 19 µM | COLO 205 22.5 µM | SK-MEL-5 17 µM | SW-620 21.7 µM | NCI-H522 16 µM | IGROV-1 16.4 µM | NCI-H23 22.2 µM | SK-MEL-2 14.4 µM | SNB-75 22.9 µM | HT-29 17.1 µM

COC(=O)[C@H]1C=NN[C@@H]1C(=O)N1[C@H]2CC3CC[C@@]2(CS1(=O)=O)C3(C)C
inactive: SK-MEL-28 > 100 µM | SNB-19 > 100 µM | SF-295 > 100 µM | SK-OV-3 > 100 µM | UACC-257 > 100 µM | A549 > 100 µM | K562 > 100 µM | COLO 205 > 100 µM | SK-MEL-5 > 100 µM | SW-620 > 100 µM | NCI-H522 > 100 µM | NCI-H226 > 100 µM | IGROV-1 > 100 µM | NCI-H23 > 100 µM | HCC 2998 > 100 µM | SK-MEL-2 > 100 µM | NCI/ADR-RES > 100 µM

Source: ChEMBL document CHEMBL1201862, “PubChem BioAssay data set” (2004)
